The structures appear in SMILES notation.

Drawing on patent US9458105B2, “Inhibitors of Bruton's tyrosine kinase” (Hoffmann-La Roche Inc., priority 2012, dated 2016), this text covers IC50 for ten molecules.

Chain of Bruton's Tyrosine Kinase (inactivated state) (Q06187 whole entry): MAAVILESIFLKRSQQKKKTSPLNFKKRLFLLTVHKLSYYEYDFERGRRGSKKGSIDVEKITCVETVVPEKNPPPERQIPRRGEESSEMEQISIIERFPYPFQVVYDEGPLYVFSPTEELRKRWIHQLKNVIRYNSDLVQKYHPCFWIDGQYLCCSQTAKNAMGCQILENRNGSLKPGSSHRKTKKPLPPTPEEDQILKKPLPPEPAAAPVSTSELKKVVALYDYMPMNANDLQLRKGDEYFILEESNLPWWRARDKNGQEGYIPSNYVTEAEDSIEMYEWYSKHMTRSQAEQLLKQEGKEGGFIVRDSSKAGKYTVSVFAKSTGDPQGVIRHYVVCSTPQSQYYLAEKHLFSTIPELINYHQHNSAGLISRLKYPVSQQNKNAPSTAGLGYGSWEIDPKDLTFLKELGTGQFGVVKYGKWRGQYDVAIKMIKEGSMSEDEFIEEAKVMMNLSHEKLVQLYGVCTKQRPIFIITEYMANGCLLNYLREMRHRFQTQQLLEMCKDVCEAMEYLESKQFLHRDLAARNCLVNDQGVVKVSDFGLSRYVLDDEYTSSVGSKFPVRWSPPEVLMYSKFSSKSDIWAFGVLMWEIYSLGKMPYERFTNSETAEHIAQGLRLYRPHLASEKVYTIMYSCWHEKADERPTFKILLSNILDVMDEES

The assay has as its target Bruton's Tyrosine Kinase (inactivated state) (Homo sapiens (Human), UniProt Q06187). Nature of the assay: Bruton's Tyrosine Kinase (BTK) Inhibition TR-FRET (Time Resolved FRET) competition assay. Type of assay: binding. Conditions: BTK-Eu / Kinase Tracer 178 competition, incubated 18-24 h at 14° C. As to the method: Bruton's Tyrosine Kinase (BTK) Inhibition TR-FRET (Time Resolved FRET) Assay
This BTK competition assay measures compound potency (IC50) for the inactivated state of Bruton's Tyrosine Kinase using FRET (Forster/Fluorescence Resonance Energy Transfer) technology. The BTK-Eu complex was incubated on ice one hour prior to use at a starting concentration of 50 nM BTK-Bioease™: 10 nM Eu-streptavidin (Perkin-Elmer Catalog #AD0062). The assay buffer consisted of 20 mM HEPES (pH 7.15), 0.1 mM DTT, 10 mM MgCl2, 0.5 mg/ml BSA with 3% Kinase Stabilizer (Fremont Biosolutions, Catalog #STB-K02). After 1 h, the reaction mixture from above was diluted 10 fold in assay buffer to make 5 nM BTK: 1 nM Eu-Streptavidin complex (donor fluorophore). 18 μl of a mixture of 0.11 nM BTK-Eu and 0.11 nM Kinase Tracer 178 (Invitrogen, Catalog #PV5593,) with BTK-Eu alone as no negative control, was then dispensed into 384-well flat bottom plates (Greiner, 784076). Compounds to be tested in assay were prepared as 10× concentrations and serial dilution in half-log increments was performed in DMSO so as to generate 10 point curves. To initiate the FRET reaction, compounds prepared as 10× stock in DMSO was added to the plates and the plates were incubated 18-24 h at 14° C.
After the incubation the plates were read on a BMG Pherastar Fluorescent plate reader (or equivalent) and used to measure the emission energy from the europium donor fluorophore (620 nm emission) and the FRET (665 nm emission). The negative control well values were averaged to obtain the mean minimum. The positive “no inhibitor” control wells were averaged to obtain the mean maximum. Percent of maximal FRET was calculated using following equation: % max FRET=100×[(FSRcmpd−FSRmean min)/(FSRmean max−FSRmean min)]
where FSR=FRET Signal ratio. % Max FRET curves were plotted in Activity Base (Excel) and the IC50(%), hill slope, z′ and % CV were determined. The mean IC50 and standard deviation will be derived from duplicate curves (singlet inhibition curves from two independent dilutions) using Microsoft Excel.
Representative compound data for this assay are listed below in Table II.
For orientation: Time-resolved FRET reads energy transfer from a long-lived donor to a nearby acceptor.
Broadly, the IC50 is the concentration at which inhibition is half-maximal. Lower therefore signals greater potency in that assay. Consider `CC(C)(C)c1cc(F)c2c(=O)n(Cc3ccc(-c4cc[nH]c(=O)c4)cc3)ncc2c1` [Compound I-1, 6-tert-Butyl-8-fluoro-2-[4-(2-oxo-1,2-dihydro-pyridin-4-yl)-benzyl]-2H-phthalazin-1-one], for which the IC50 is 3.32 µM.
With `CC(C)(C)c1cc(F)c2c(=O)n(Cc3ccc(-c4cc[nH]c(=O)c4)cc3F)ncc2c1` [Compound I-2, 6-tert-Butyl-8-fluoro-2-[2-fluoro-4-(2-oxo-1,2-dihydro-pyridin-4-yl)-benzyl]-2H-phthalazin-1-one], the IC50 turned out to be 0.983 µM.
Regarding `CC(C)(C)c1cc(F)c2c(=O)n(-c3cccc(-c4cc[nH]c(=O)c4)c3CO)ncc2c1` [Compound I-3, 6-tert-Butyl-8-fluoro-2-[2-hydroxymethyl-3-(2-oxo-1,2-dihydro-pyridin-4-yl)-phenyl]-2H-phthalazin-1-one], the IC50 was 0.366 µM.
In turn, `CC(C)(C)c1cc(F)c2c(=O)n(Cc3c(F)cc(-c4cc[nH]c(=O)c4)cc3F)ncc2c1` [Compound I-4, 6-tert-Butyl-2-[2,6-difluoro-4-(2-oxo-1,2-dihydro-pyridin-4-yl)-benzyl]-8-fluoro-2H-phthalazin-1-one] showed an IC50 of 13.3 µM.
`CC(C)(C)c1cc(F)c2c(=O)n(Cc3ccc(-c4cc[nH]c(=O)c4)cc3CO)ncc2c1` [Compound I-5, 6-tert-Butyl-8-fluoro-2-[2-hydroxymethyl-4-(2-oxo-1,2-dihydro-pyridin-4-yl)-benzyl]-2H-phthalazin-1-one] registered an IC50 of 3.14 µM.
On to `Cn1cc(-c2cc(-c3ccc(Cn4ncc5cc(C(C)(C)C)cc(F)c5c4=O)c(F)c3)cc(=O)[nH]2)cn1` [Compound I-6, 6-tert-Butyl-8-fluoro-2-{2-fluoro-4-[6-(1-methyl-1H-pyrazol-4-yl)-2-oxo-1,2-dihydro-pyridin-4-yl]-benzyl}-2H-phthalazin-1-one], for which the IC50 turned out to be 0.0142 µM.
`Cc1c(NC(=O)c2ccc(C(C)(C)C)cc2)cccc1-c1cc[nH]c(=O)c1` [Compound I-7, 4-tert-Butyl-N-[2-methyl-3-(2-oxo-1,2-dihydro-pyridin-4-yl)-phenyl]-benzamide] came in with an IC50 of 6.91 µM.
Under `CC(C)(C)c1cc(F)c2c(=O)n(Cc3ccc(-c4cc[nH]c(=O)c4)c(CO)c3)ncc2c1` [Compound I-8, 6-tert-Butyl-8-fluoro-2-[3-hydroxymethyl-4-(2-oxo-1,2-dihydro-pyridin-4-yl)-benzyl]-2H-phthalazin-1-one] stands > 100 µM.
Molecule `CC(C)(C)c1cc(F)c2c(=O)n(Cc3cc(CO)c(-c4cc[nH]c(=O)c4)cc3F)ncc2c1` [Compound I-9, 6-tert-Butyl-8-fluoro-2-[2-fluoro-5-hydroxymethyl-4-(2-oxo-1,2-dihydro-pyridin-4-yl)-benzyl]-2H-phthalazin-1-one] registered a half-inhibitory concentration (IC50) of 52.3 µM.
Under `Cn1cc(-c2cc(-c3ccc(CN4Cc5cc(C(C)(C)C)sc5C4=O)c(F)c3)cc(=O)[nH]2)cn1` [Compound I-10, 2-tert-Butyl-5-{2-fluoro-4-[6-(1-methyl-1H-pyrazol-4-yl)-2-oxo-1,2-dihydro-pyridin-4-yl]-benzyl}-4,5-dihydro-thieno[2,3-c]pyrrol-6-one] stands 0.00711 µM.
